From US10662210B2, “Compositions and methods comprising osmium for the treatment of cancers” (Massachusetts Institute of Technology, priority 2014, dated 2020)

Tests used:
Format in all cases: cell-based, human
[1] = system: genomic DNA from A2780 cells; assay: Intracellular DNA osmium content; settings: 10 μM, 12 h
Description: To gain further insight into the modes of action of 2 and 4, immunoblotting analyses were conducted to monitor changes in expression of biomarkers related to the DNA damage pathway (FIG. 8). […] This difference could be related to steric effects imposed by the phenyl groups in 4.
To measure the amount osmium on genomic DNA, ca. 1 million A2780 cells were treated with 10 μM of the complexes at 37° C. for 12 h. Then the media were removed, the cells were washed with PBS solution (1 mL×3), harvested, and centrifuged. The cellular pellet was suspended in DNAzol (1 mL, genomic DNA isolation reagent, MRC). The DNA was precipitated with ethanol (0.5 mL), washed with 75% ethanol (0.75 mL×3), and re-dissolved in 200 μL of 8 mM NaOH. The DNA concentration was determined by UV-visible spectroscopy, and osmium was quantified by GFAAS. The reported values are the average of at least three independent experiments with the error reported as the standard deviation.

A2780 cells = assay: DNA flow cytometric cell cycle analysis
Description: After 24 hours untreated A2780 cells had the following distribution: G1: 73.4%, S: 21.7%, and G2/M: 5.0%. After 48 hours untreated A2780 cells had the following distribution: G1: 75.1%, S: 19.6%, and G2/M: 5.2%. After 72 hours untreated had the following distribution: G1: 73.6%, S: 21.0%, and G2/M: 5.4%. After 24 hours A2780 cells treated with 2 had the following distribution: G1: 61.0%, S: 27.9%, and G2/M: 11.1%. After 48 hours A2780 cells treated with 2: G1: 61.8%, S: 19.0%, and G2/M: 19.1%. After 72 hours A2780 cells treated with 2 had the following distribution: G1: 57.3%, S: 23.3%, and G2/M: 19.4%. This property may be related to upregulation of p53 and phosphorylation of CHK1. Complex 4 induced relatively small perturbations to the cell cycle; changes in phase populations remained <5% even after a 72-hours incubation. After 24 hours untreated A2780 cells had the following distribution: G1: 73.7%, S: 23.1%, and G2/M: 3.3%. After 48 hours untreated A2780 cells had the following distribution: G1: 73.4%, S: 21.7%, and G2/M: 4.9%. After 72 hours untreated A2780 cells had the following distribution: G1: 79.7%, S: 19.4%, and G2/M: 0.9%. After 24 hours A2780 cells treated with 4 had the following distribution: G1: 70.9%, S: 24.8%, and G2/M: 4.6%. After 48 hours A2780 cells treated with 4 had the following distribution: G1: 71.9%, S: 18.3%, and G2/M: 9.8%. After 72 hours A2780 cells treated with 4 had the following distribution: G1: 70.3%, S: 24.4%, and G2/M: 5.3%.
In order to monitor the cell cycle, flow cytometry studies were carried out. A2780 cells were incubated with and without the test compounds for 24-72 h at 37° C. Studies on A549 cells under normal and starved (proliferating and non-proliferating) conditions were also carried out. Cells were harvested from adherent cultures by trypsinization. Following centrifugation at 1000 rpm for 5 min, cells were washed with PBS and then fixed with 70% ethanol in PBS. Fixed cells were collected by centrifugation at 2500 rpm for 3 min, washed with PBS and centrifuged as before. Cellular pellets were re-suspended in 50 μg/ml propidium iodide (Sigma) in PBS for nucleic acids staining and treated with 100 μg/ml RNaseA (Sigma). DNA content was measured on a FACSCalibur-HTS flow cytometer (BD Biosciences) using laser excitation at 488 nm and 20,000 events per sample were acquired. Cell cycle profiles were analysed using the ModFit software. For the apoptosis experiments, the Annexin V-FITC Early Apoptosis Detection Kit was used. The manufacture's protocol was followed to carry out this experiment. Briefly, untreated and treated cells (1×10^5) were suspended in 1× annexin binding buffer (96 μL) (10 mM HEPES, 140 mM NaCl, 2.5 mM CaCl2), pH 7.4), then 1 μL FITC annexin V and 12.5 μL PI (10 μg/mL) were added to each sample and incubated on ice for 15 min. After which more binding buffer (150 μL) was added while gently mixing. The samples were kept on ice prior to being read on the FACSCalibur-HTS flow cytometer (BD Biosciences) and 20,000 events per sample were acquired. Cell populations were analysed using the FlowJo software (Tree Star).

[2] = system: phosphorylated eIF2α and CHOP in A2780 cells; assay: Immunoblotting analysis, unfolded protein response; settings: 72 hours
Description: This finding led to the investigation of the possibility that 4 may induce endoplasmic reticulum (ER) stress. Co-administration of 4 and salubrinal (10 μM), a known ER stress inhibitor, reduced the cytotoxicity of 4 in A2780 cells. […] To further validate the ER as the main target for 4, the expression of proteins related to the unfolded protein response (UPR) was monitored. […] ER membrane expansion is widely associated with ER stress. With this fact in mind the ER size of A2780 cells upon incubation with 4 were examined using fluorescence microscopy. Relative to untreated controls (FIG. 3B), cells exposed to 4 (10 μM) for 4 h had 25.1% larger ER coverage (FIG. 3C). The ER size relative to the whole cell of the untreated controls was about 30% and the ER size relative to the whole cell of the treated samples was about 55%.
A2780 cells (5×10^5 cells) were incubated with the osmium complexes (concentrations, μM) for 72 h at 37° C. Cells were washed with PBS, scraped into SDS-PAGE loading buffer (64 mM Tris-HCl (pH6.8)/9.6% glycerol/2% SDS/5% β-mercaptoethanol/0.01% Bromophenol Blue), and incubated at 95° C. for 10 min. […] After incubation with horseradish peroxidase-conjugated secondary antibodies (Cell Signalling Technology), immune complexes were detected with the ECL detection reagent (BioRad) and analyzed using an Alpha Innotech ChemiImager™ 5500 fitted with a chemiluminescence filter.

SMILES	Os/DNA ratio on genomic DNA [1]	cell cycle distribution G1 (A2780 cells; 24 hours)	cell cycle distribution G2/M (A2780 cells; 24 hours)	cell cycle distribution S (A2780 cells; 24 hours)	cell cycle distribution G1 (A2780 cells; 48 hours)	cell cycle distribution G2/M (A2780 cells; 48 hours)	cell cycle distribution S (A2780 cells; 48 hours)	cell cycle distribution G1 (A2780 cells; 72 hours)	cell cycle distribution G2/M (A2780 cells; 72 hours)	cell cycle distribution S (A2780 cells; 72 hours)	changes in phase populations (A2780 cells; up to 72-hours incubation)	phosphorylated eIF2α and CHOP expression [2]	increase in G2/M population (A2780 cells; 72 h incubation)
[N]#[Os]1([Cl])([Cl])([Cl])[N]2C=CC(c3ccccc3)=c3ccc4c(c32)[N]1C=CC=4c1ccccc1 [Complex 4, OsN(4,7-diphenyl-1,10-phenanthroline)Cl3]	about 14 pmol/μg	70.9%	4.6%	24.8%	71.9%	9.8%	18.3%	70.3%	5.3%	24.4%	< 5%	upregulated	
[N]#[Os]1([Cl])([Cl])([Cl])[N]2C=CC=c3ccc4c(c32)[N]1C=CC=4 [Complex 2, OsN(1,10-phenanthroline)Cl3]	about 21 pmol/μg	61.0%	11.1%	27.9%	61.8%	19.1%	19.0%	57.3%	19.4%	23.3%		little effect	~3 fold
